Reference: US20060223827A1, “Bioreductively activated stilbene prodrugs” (Siemens Aktiengesellschaft, priority 2003, published 2006)

How the values were obtained:
[1] = Radiolysis (steady state): release of combretastatin A4 after one-electron reduction; format: physicochemical; conditions: isopropanol/water 50:50, N2O-saturated, 60Co source 3.9 Gy min^−1, HPLC
Protocol: In the hypoxic environments of solid tumours, prodrugs can be reduced by one-electron processes that are inhibited in the normoxic environments of normal tissues.
Compounds were dissolved in an isopropanol/water mixture (50:50) at a concentration of 50 μM or below. Solutions, in gas-tight syringes, were saturated with nitrous oxide before irradiation in a ^60Co source at a dose rate of 3.9 Gy min^−1 (as determined by Fricke dosimetry: H. Fricke and E. J. Hart, “Chemical Dosimetry” in Radiation Dosimetry Vol. 2 (F. H. Attrix and W. C. Roesch. Eds.), pp 167-239. Academic Press New York, 1966.). Solutions were analysed for released drug by HPLC. The radiation chemical yields (G-values) of combretastatin A4 release obtained in this assay for selected example compounds are shown in Table 1.

Row | SMILES | G (radiation chemical yield of combretastatin A4 release) [1] | melting point
1 | COc1ccc(/C=C\c2cc(OC)c(OC)c(OC)c2)cc1OCc1ccc([N+](=O)[O-])s1 [Example 1, 1-(4-Methoxy-3-(5-nitrothien-2-yl)methoxy)phenyl-2-(3,4,5-trimethoxy)phenyl-Z-ethene] | 0.23 µmol/J | 88 to 90 °C
2 | COc1ccc(/C=C\c2cc(OC)c(OC)c(OC)c2)cc1OC(C)c1ccc([N+](=O)[O-])s1 (stereo not drawn) [Example 2, 1-(4-Methoxy-3-(1-(5-nitrothien-2-yl)ethoxy))phenyl-2-(3,4,5-trimethoxy)phenyl-Z-ethene] | 0.33 µmol/J | –
3 | COC1=CC(=O)c2c(c(COc3cc(/C=C\c4cc(OC)c(OC)c(OC)c4)ccc3OC)c(C)n2C)C1=O [Example 4, 5-Methoxy-3-((3,4,4′,5-tetramethoxy-(Z)-stilbene-3′-yl)oxy)methyl-1,2-dimethylindole-4,7-dione] | 0.44 µmol/J | 192 to 194 °C
4 | COc1ccc(/C=C\c2cc(OC)c(OC)c(OC)c2)cc1OCc1c2c(n(C)c1C)C(=O)C=C(N1CCN(C)CC1)C2=O [Example 5, 3-((3,4,4′,5-Tetramethoxy-(Z)-stilbene-3′-yl)oxy)methyl-1,2-dimethyl-5-(4 methylpiperazin-1-yl)indole-4,7-dione] | 0.34 µmol/J | –
